How the values were obtained:
[1] = system: caspase-3/7 activity in MDA-MB-231 cells; assay: Apo-ONE Homogenous Caspase-3/7 Assay; assay type: cell-based, human; conditions: 0.1, 1, 10 µM, 48 h
Method: (§1) The Apo-ONE® Homogenous Caspase-3/7 Assay (Promega, Madison, WI, USA) was used for measuring caspase-3/7 activity. Cells (10,000 cells/well) were seeded in 96-well plates. After 24 h, the cells were treated with A-1, A-3, and RES, and incubated for an additional 48 h at 37 °C, with a humidified atmosphere of 5% CO2 (however, MDA-MB-436 cells were incubated in 0% CO2). Control groups were cells treated with 0.01% DMSO (ATCC; Manassas, VA, USA). According to the manufacturer, after 48 h of treatment, the caspase reagent was added to the cells and the plates were incubated at room temperature in the dark for 1 h. Then, fluorescence was measured every hour for a total of 4 h using the Cytation^TM 5 (BioTek; Winooski, VT, USA) plate reader at an excitation wavelength of 485 ± 20 nm and emission of 530 ± 25 nm.

[2] = system: caspase-3/7 activity in MDA-MB-436 cells; assay: Apo-ONE Homogenous Caspase-3/7 Assay; assay type: cell-based, human; conditions: 0.1, 1, 10 µM, 48 h
Method: as §1

[3] = system: caspase-8, 9, PARP, and survivin proteins in MDA-MB-231 cells; assay: Western blot of caspase-8, caspase-9, PARP and survivin; assay type: cell-based, human; conditions: 0.1 and 1 µM, 24 h
Method: (§2) MDA-MB-231 and MDA-MB-436 cells (10^7 and 5 × 10^6 cells/3 mL medium, respectively) were seeded in a 6-well cell culture plate. After 24 h, the cells were treated with A-1 (0.1 µM and 1 µM) for 24 h. Cells treated with 0.01% DMSO (ATCC; Manassas, VA, USA) were included as a control. Protein extracts were prepared using RIPA Lysis and Extraction Buffer plus Halt™ Protease Inhibitor Cocktail (Thermo Fisher Scientific; Waltham, MA, USA). The protein concentration was measured using the Bradford assay (Thermo Fisher Scientific; Waltham, MA, USA). Protein extracts (60 µg) with 5 µL of 2X Novex™ Tris-Glycine SDS Sample Buffer (Thermo Fisher Scientific; Waltham, MA, USA) and 1% dithiothreitol (DTT; Thermo Fisher Scientific; Waltham, MA, USA) were denatured and separated by electrophoresis using SDS-PAGE in 10% Tris-Glycine pre-cast gel (Novex™ WedgeWell™, Thermo Fisher Scientific; Waltham, MA, USA). The gel was run in 1X Novex™ Tris-Glycine SDS running buffer (Thermo Fisher Scientific; Waltham, MA, USA) at a constant 125 voltage for 90 min. The proteins were transferred into Trans-Blot Turbo Mini 0.2 µm PVDF membranes (Bio-Rad Laboratories; Hercules, CA, USA) using the Trans Blot Turbo System (Bio-Rad Laboratories; Hercules, CA, USA) at 1.3 amp and up to 25 volts for 7 min. After the membranes dried completely, they were incubated in 1X Tris Buffered Saline (TBS; Bio-Rad; Hercules, CA, USA) for 5 min at room temperature. Then, the membranes were blocked with 5% non-fat dry milk in 1X TBS containing 1% Tween 20 (TBST; Bio-Rad; Hercules, CA, USA) for 1 h at room temperature. The membranes were incubated with specific primary antibodies at 4 °C overnight. The primary antibodies and dilutions included rabbit anti-caspase-8 (D35G2) mAb (1:500; Cell Signaling Technology; Danvers, MA, USA), rabbit anti-PARP mAb (1:500; Cell Signaling Technology; Danvers, MA, USA), rabbit anti-human survivin polyclonal antibody (0.5 µg/mL; R&D Systems; Minneapolis, MN, USA), mouse anti-human caspase-9 mAb (1 µg/mL; R&D Systems; Minneapolis, MN, USA), mouse anti-vinculin antibody (2 µg/mL; R&D Systems; Minneapolis, MN, USA), and mouse anti-human GAPDH antibody (0.05 µg/mL; R&D Systems; Minneapolis, MN, USA). Afterwards, the membranes were incubated with HRP-conjugated goat anti-rabbit IgG secondary antibody (1:2000; Cell Signaling Technology; Danvers, MA, USA) and HRP-conjugated AffiniPure goat anti-mouse IgG secondary antibody (1:50,000; Jackson Immunoresearch Laboratories; West Grove, PA, USA) for 1 h at room temperature. The membranes were washed with 1X TBST and then incubated with SuperSignal™ West Pico PLUS Chemiluminescent Substrate (Thermo Fisher Scientific; Waltham, MA, USA). The membranes were scanned and analyzed using the Li-COR Odyssey® Fc Imaging System (LI-COR Biosciences; Lincoln, NE, USA).

[4] = system: caspase-8, 9, PARP, and survivin proteins in MDA-MB-436 cells; assay: as above; assay type: cell-based, human; conditions: 0.1 and 1 µM, 24 h
Method: as §2

[5] = system: peripheral blood mononuclear cells (PBMCs); design: method as in PMID 21067217; conditions: cited from earlier work

## CC(C)/C=C/c1c(O)cc(/C=C/c2ccc(O)c(O)c2)cc1O [A-1, arachidin-1]
[1]
  caspase-3/7 activity vs control: significant increase of dose-dependent caspase-3/7 activities
[2]
  caspase-3/7 activity vs control: significant increase of dose-dependent caspase-3/7 activities
[3]
  cleaved PARP level: only slightly increased and not statistically significant
  cleaved caspase-9 level: only significantly increased in A-1 1 µM
  full-length PARP protein level: significantly decreased levels
  full-length caspase-8 level: no significant change
  survivin expression: downregulated
[4]
  cleaved PARP level: significantly increased
  cleaved caspase-9 level: significantly increased
  full-length caspase-8 level: no significant change
  survivin expression: downregulated
[5]
  cytotoxic effects on PBMCs: no cytotoxic effects
